In general, IC50 refers to the concentration needed to halve the response being measured.

One experiment concerns the target T1, PNPLA1 (Homo sapiens, UniProt Q8N8W4).
T1 construct: expressed in transfected cells; host or cells: HEK293T cells
As to the kind of experiment: PNPLA1-dependent ω-O-acylceramide formation in HEK293T cells. It counts as cell-based. As to conditions: NG-497 40 µM, Orlistat 40 µM. How it is done: Fig. S3: Investigation of off-target effects of NG-497 on structurally and functionally related lipid hydrolases. (a) PNPLA1-dependent formation of acylceramides was monitored in a cell-based assay in HEK293T cells. Experiments were performed in the presence or absence of NG-497 (40 µM) and the non-selective lipase inhibitor Orlistat (40 µM). Orlistat, but not NG-497, inhibited PNPLA1/CGI-58-dependent ω-O-acylceramide formation. (b-h) Enzymes were overexpressed in Expi293 cells and cell lysates were used as source of enzymatic activity. […] Experiments were performed in the presence or absence of NG-497 (100 µM) and the formation of reaction products was monitored. […]
Data were calculated relative to the basal activity detected in LacZ-transfected controls. […]
LPL activity was inhibited using an anti-LPL antibody. All data are presented as mean ± S.D. Statistical significance was determined via ANOVA followed by Bonferroni post hoc test ( ***, p < 0.001). […]
Released free fatty acids were quantified via NEFA C kit (Fujifilm Wako Chemicals, Neuss, Germany) and release of p-nitrophenol was measured at 405 nm. […] Cellular ω-O-acylceramide formation was monitored using [1-14C]linoleic acid as tracer. […] The activity of purified human pancreatic lipase (MilliporeSigma #SRE0028) was determined as previously described7 in the presence or absence of NG-497 (100µM) or Orlistat (20 µM). […]

A further experiment has as its target T2, human ATGL (Homo sapiens, UniProt Q96AD5).
T2 construct: host or cells: Expi293 cells, crude lysate
T2 sequence (Q96AD5 1-504): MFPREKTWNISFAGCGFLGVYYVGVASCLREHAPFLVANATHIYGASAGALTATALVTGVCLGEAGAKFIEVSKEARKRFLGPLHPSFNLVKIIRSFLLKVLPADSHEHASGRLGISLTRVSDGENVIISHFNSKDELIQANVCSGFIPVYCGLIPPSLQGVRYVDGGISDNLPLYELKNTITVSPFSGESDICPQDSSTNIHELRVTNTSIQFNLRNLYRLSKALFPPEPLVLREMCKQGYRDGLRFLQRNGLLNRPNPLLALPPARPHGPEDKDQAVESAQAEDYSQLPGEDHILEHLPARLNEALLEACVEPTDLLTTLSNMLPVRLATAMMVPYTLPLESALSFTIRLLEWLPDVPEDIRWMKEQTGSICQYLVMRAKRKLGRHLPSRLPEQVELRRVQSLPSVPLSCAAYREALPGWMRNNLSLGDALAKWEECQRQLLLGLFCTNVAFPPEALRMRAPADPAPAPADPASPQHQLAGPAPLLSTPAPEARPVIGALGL
As to the kind of experiment: TAG hydrolase assay, lysates of Expi293 cells overexpressing ATGL, purified CGI-58, radiolabeled triolein. It counts as biochemical. As to conditions: inhibition of TAG hydrolase activity of human ATGL, Expi293 lysates, purified CGI-58, radiolabeled triolein. The source says: We previously developed Atglistatin (Ai), a selective inhibitor of mouse ATGL,[31],[32] which is ineffective against human ATGL.[17] Ai acts as a competitive inhibitor targeting the minimal active domain of ATGL ranging from aa 1–254.[33] This domain is highly conserved in different mammalian species (∼90% identity, Table 1) and comprises the patatin-like domain, eponymous for all members of the patatin-like phospholipase domain-containing (PNPLA) protein family.[34] We first investigated the species selectivity of Ai by performing TAG hydrolase assays[35] with lysates from Expi293 cells expressing ATGL orthologues of different species. The activity of ATGL is strongly stimulated by the co-activator protein comparative gene identification-58 (CGI-58, also known as α/β hydrolase domain containing 5, ABHD5)[36] and can be suppressed by the inhibitory protein G0/G1 switch 2 (G0S2).[37] We therefore determined ATGL activity in the presence and absence of mouse CGI-58, mouse G0S2, and Ai. As shown in Figure 1a–i, all ATGL orthologues were expressed, enzymatically active, stimulated by mouse CGI-58, and inactivated by mouse G0S2. Ai inhibited mouse (Figure 1a), rat (Figure 1b), goat (Figure 1c), dog (Figure 1e), and marmoset ATGL (Figure 1f), but not pig (Figure 1d), rhesus monkey (Figure 1g), or human ATGL (Figure 1h).
To develop an inhibitor for human ATGL, we screened compounds synthesized in the course of the development of Ai.[31] Screenings were performed in the presence of purified CGI-58 using cell lysates of Expi293 cells overexpressing ATGL as a source of enzymatic activity and radiolabeled triolein as substrate as described above (Figure 1). […] In an iterative optimization process, which encompassed the synthesis and testing of >150 compounds (not shown), we varied the nature of the top aryl ring (Figure 2a). Replacement of the top phenyl group with a pyridine moiety (compound 2) led to a significant improvement in inhibitor efficacy (IC50 = 3 μM), which we interpret as a result from a smaller angle between the 1,3-arrangement of the aryl- and the ester-substituents due to the shorter C–N bond length within the pyridine group. […] The introduction of a methoxy residue at this position finally led to compound NG-497 showing an IC50 value of 1 μM.
Experimental details, materials, and methods
Expression of recombinant ATGL constructs and preparation of cell lysates. Expi293 cells were cultivated in Expi293 Expression Medium (GIBCO, Thermo Fisher Scientific, Waltham, USA) at standard conditions (37°C, 5% CO2, 95% humidified atmosphere, 125 rpm). DNA constructs containing ATGL from different species and chimeric ATGL variants in pcDNA3.1(+)myc-His C Vector were obtained from BioCat GmbH (Heidelberg, Germany). Cells were transfected with ExpiFectamine293 Transfection Kit (GIBCO) in Opti-Mem reduced serum medium (GIBCO) according to the manufacturer’s instructions. After 48 h, cells were harvested by centrifugation and washed three times with PBS. Cells were disrupted in buffer A (0.25 M sucrose, 1 mM EDTA, 1 mM dithiothreitol, 20µg/ml leupeptin, 2 µg/ml antipain, 1 µg/ml pepstatin, pH 7.0) by sonication (Virsonic 475, Virtis, Gardiner, USA). Nuclei and debris were removed by centrifugation at 1,000 g and 4°C for 10 min. Protein concentrations were determined using Bio-Rad protein assay (Bio-Rad 785, Bio-Rad Laboratories, Munich, Germany) using BSA as standard.
Expression and purification of mouse CGI-58. CGI-58 was expressed and purified as described 1. In brief, the coding sequence of mouse Cgi-58 was cloned into pHis-Sumo and co-transformed with the plasmid pTf16 expressing the chaperone Tig into E. coli BL21(DE3). Cells were cultured overnight at 37°C and 180 rpm in the presence of 40 µg/ml kanamycin and 34 µg/ml chloramphenicol. Thereafter, cells were transferred into fresh LB medium, grown until OD600 of 0.6, and expression was induced […]
by the addition of 0.5 mM IPTG. […]

T1 sequence (Q8N8W4 whole entry): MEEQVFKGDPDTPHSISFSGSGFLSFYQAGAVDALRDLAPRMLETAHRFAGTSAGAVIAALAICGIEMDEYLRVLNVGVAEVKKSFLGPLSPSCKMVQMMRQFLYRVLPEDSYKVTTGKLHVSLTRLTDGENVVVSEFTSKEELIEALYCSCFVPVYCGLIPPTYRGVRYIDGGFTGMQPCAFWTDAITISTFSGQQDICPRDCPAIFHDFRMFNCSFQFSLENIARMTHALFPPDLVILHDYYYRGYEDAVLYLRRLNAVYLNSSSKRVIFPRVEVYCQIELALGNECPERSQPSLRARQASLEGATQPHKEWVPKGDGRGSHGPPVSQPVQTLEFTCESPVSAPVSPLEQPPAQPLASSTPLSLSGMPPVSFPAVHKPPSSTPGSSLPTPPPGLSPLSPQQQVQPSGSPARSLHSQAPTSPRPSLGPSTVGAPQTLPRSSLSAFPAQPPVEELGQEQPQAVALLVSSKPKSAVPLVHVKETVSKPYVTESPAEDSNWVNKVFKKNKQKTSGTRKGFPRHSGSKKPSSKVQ

Regarding `CCCCCCCCCCC[C@@H](C[C@@H]1OC(=O)[C@H]1CCCCCC)OC(=O)[C@H](CC(C)C)NC=O` [Orlistat, reference compound], the “PNPLA1/CGI-58-dependent ω-O-acylceramide formation” value on PNPLA1 is given as “inhibited”. The compound `CCOC(=O)c1cccc(-c2ccc(OCC)cc2)c1` [compound 1] registered a half-inhibitory concentration (IC50) against human ATGL of 35 µM. `CCOC(=O)c1cccc(-c2ccc(OCC)cc2)n1` [compound 2] registered an IC50 at human ATGL of 3 µM. This IC50 is about 12-fold lower than that of the compound before.

In the case of `CCOc1ccc(-c2cccc(C(=O)OC(C)C)n2)cc1` [compound 3], the IC50 at human ATGL came to 1.8 µM. On the same count and under the same terms, the same measure for `CCOc1ccc(-c2cc(C)cc(C(=O)OC(C)C)n2)cc1` [compound 4]: 1.6 ± 0.1 µM.

The values above are taken from publication PMC9011347, “Small-Molecule Inhibitors Targeting Lipolysis in Human Adipocytes” (Journal of the American Chemical Society, 2022).
